Patent US20230255957A1, “VIRAL ENTRY INHIBITORS AND RNA POLYMERASE INHIBITORS” (SELVA THERAPEUTICS, INC., priority 2020, published 2023)
Where “and” joins values, the source holds several entries; their conditions need not be identical. Identical values can stand only once. Like-named read-outs stand apart in the source and are kept apart here.

Experiments:
SARS-CoV-2 [1] = experiment: In vitro cytopathogenic effect / EC100 assay, K11777 and EIDD-1931, Vero E6; assay type: cell-based; details: for EC100: compound alone
Method: (§1) Controlled in vitro assays were conducted to measure the concentrations of K11777 and EIDD-1931 in combination required to induce 100% maximal response (EC100) for SARS-CoV-2 activity in the Vero E6 cell line. The concentrations of the combination are also compared to the concentrations required for each compound to achieve the same result individually.
Table 4 is split into two portions (a) and (b) above to accommodate page size. The first columns of 4(a) and (b) show concentration values from 10 μM (micromolar) to 0.078 μM. […] The designation “ND” indicates no cytopathogenic effect was detected.

SARS-CoV-2 [2] = experiment: microbe, parasite or virus in culture; assay type: cell-based; details: read-out: Inhibition of Viral Infectivity EC50
[3] = Cytotoxicity to host cells, Vero E6; assay type: cell-based; details: African green monkey
Method: (§2) Controlled […] assays were conducted to measure the half-maximal effective concentration (EC50) of K777 required to prevent entry of SARS-CoV-2 in various cell lines, as well as cytotoxicity to the host cells (CC50).

[4] = Cytotoxicity to host cells, A549/ACE2; assay type: cell-based; details: human
Method: as §2

[5] = Cytotoxicity to host cells, HeLa/ACE2; assay type: cell-based; details: human
Method: as §2

[6] = Cytotoxicity to host cells, Calu-3; assay type: cell-based; details: human, Calu-3 cells
Method: as §2

SARS-CoV-2 [7] = experiment: Initial pilot study, non-human primate model, organ assessment at autopsy; assay type: in vivo, African Green Monkey; details: 100 mg/kg/day, 7 days, pretreated; autopsy day 7
Method: An initial pilot study was conducted to determine the potential for efficacy of K777 against SARS-CoV-2 in a non-human primate model (African Green Monkey). The study included six subjects (N=6), with two controls receiving vehicle only and four receiving K777. Each subject was pretreated with K777 (100 mg/kg) or placebo (control). Each subject was then inoculated with SARS-CoV-2 at […] (3-4 hours after first dose of K777). Each subject was then treated with K777 for 6 additional days (7 days total) (100 mg/kg/day). Each subject was then sacrificed and an autopsy was performed at day 7. During the study, daily measurement of viral titers was performed via BAL, nasal swabs, and pharyngeal swabs. During autopsy, organ assessment was performed. The results are shown in Table 2.1 below and depicted in FIG. 4.

SARS-CoV-2 [8] = experiment: Follow up pilot study, non-human primate model, organ assessment at autopsy; assay type: in vivo, African Green Monkey; details: for Lung weight % of weight / Lung weight Left lobe / Lung weight Right lobe / Lung weight Total: 7 days, autopsy day 7
Method: Following the initial pilot study, a follow up pilot study was conducted to further explore the potential for efficacy of K777 against SARS-CoV-2 in a non-human primate model (African Green Monkey). The study included eight subjects (N=8), with two controls and six receiving K777. Unlike in the initial pilot, in this follow-up pilot no subjects were pretreated with K777. Each subject was inoculated with SARS-CoV-2 for 8 hours. Each subject was then treated with K777 for 7 days (33 mg/kg/day (n=3) or 100 mg/kg/day (n=3)) or placebo (n=2). Each subject was then sacrificed, and an autopsy was performed at day 7. During the study, measurements of viral load were determined from serial nasal and pharyngeal swabs as well as brochoalveolar fluid (BAL) samples. During autopsy, organ assessment was performed. The results are shown in Tables 2.2, 2.3, 2.4 and 2.5 below and depicted in FIGS. 5 to 12. FIGS. 7 to 10 depict histological slides of lung tissue taken from the subjects in the follow up pilot study after completion of the study. FIG. 6 depicts histological slides of lung tissue taken from a normal human lung and from a human lung with diffuse alveolar damage (DAD) for comparison. In FIGS. 7 to 10, NB numbers are subject identifiers. In FIGS. 8 to 10, “RL” means right lung and “LL” means left lung. FIG. 11 depicts the histopathology shown in FIGS. 8 to 10 in one chart for side-by-side comparison. FIG. 12 depicts viral load for each group on day 1 and day 7 of the follow up pilot study.

SARS-CoV-2 [9] = experiment: Follow up pilot study, viral load in pharyngeal and nasal swabs and BAL; assay type: in vivo, African Green Monkey
SARS-CoV-2 [10] = experiment: In vitro cytopathogenic effect / EC100 assay, K11777 and Remdesivir, Vero E6; assay type: cell-based; details: for EC100: compound alone
Method: as §1, with “Remdesivir” for “EIDD-1931”
The designation “ND” indicates no cytopathogenic effect was detected. The designation “C” indicates the composition itself caused a cytotoxic effect. The designation “n/a” means no observation was made.

[11] = conc 0.078 uM (of K777 in combinations), Vero E6
[12] = conc 0.3125 uM (of K777 in combinations), Vero E6
[13] = African Green Monkey, SARS-CoV-2
[14] = conc 0.1 μM (of K11777 in combinations)
[15] = conc 0.3 μM (of K11777 in combinations)
[16] = conc 1 μM (of K11777 in combinations)

O=c1[nH]/c(=N\O)ccn1[C@@H]1O[C@H](CO)[C@@H](O)[C@H]1O [EIDD-1931, Beta-d-N4-hydroxycytidine, reference compound]
cytopathogenic effect (SARS-CoV-2 [1]): CPE | EC100 (SARS-CoV-2 [1]; Vero E6): 5 µM | cytopathogenic effect (SARS-CoV-2 [1]; [11]): CPE | cytopathogenic effect (SARS-CoV-2 [1]; [12]): CPE | cytopathogenic effect (SARS-CoV-2 [1]; conc 2.5 uM (of K777 in combinations), Vero E6): CPE

CN1CCN(C(=O)N[C@@H](Cc2ccccc2)C(=O)N[C@H](/C=C/S(=O)(=O)c2ccccc2)CCc2ccccc2)CC1 [K777]
EC50 (SARS-CoV-2 [2]; Severe acute respiratory syndrome coronavirus 2, A549-ACE2, A549/ACE2): < 0.08 µM | EC50 (SARS-CoV-2 [2]; Severe acute respiratory syndrome coronavirus 2, Calu-3, Calu-3): 3 to 5 µM | EC50 (SARS-CoV-2 [2]; Severe acute respiratory syndrome coronavirus 2, HeLa-ACE2, HeLa/ACE2): 0.004 µM | CC50 [3]: > 10 µM | CC50 [4]: > 10 µM | CC50 [5]: > 10 µM | CC50 [6]: > 10 µM | Lung weight % of weight (SARS-CoV-2 [7]): 0.52% and 0.49% and 0.51% and 0.58% | Lung weight Left lobe (SARS-CoV-2 [7]): 13.06 g and 12.79 g and 19.06 g and 21.72 g | Lung weight Right lobe (SARS-CoV-2 [7]): 17.22 g and 16.99 g and 14.43 g and 16.84 g | Lung weight Total (SARS-CoV-2 [7]): 30.28 g and 29.78 g and 33.49 g and 38.56 g | Lymph enlargement (SARS-CoV-2 [7]): 2 fold and 2.5 fold | Lung weight % of weight (SARS-CoV-2 [8]; 33 mg/kg/day): 0.66% and 0.95% and 0.54% | Lung weight Left lobe (SARS-CoV-2 [8]; 33 mg/kg/day): 24 g and 28 g and 17 g | Lung weight Right lobe (SARS-CoV-2 [8]; 33 mg/kg/day): 20 g and 28 g and 24 g | Lung weight Total (SARS-CoV-2 [8]; 33 mg/kg/day): 44 g and 56 g and 41 g | Lung weight % of weight (SARS-CoV-2 [8]; 100 mg/kg/day): 0.50% and 0.46% and 0.56% | Lung weight Left lobe (SARS-CoV-2 [8]; 100 mg/kg/day): 14 g and 15 g | Lung weight Right lobe (SARS-CoV-2 [8]; 100 mg/kg/day): 18 g and 19 g | Lung weight Total (SARS-CoV-2 [8]; 100 mg/kg/day): 32 g and 33 g and 34 g | lung damage (histopathology) (SARS-CoV-2 [8]; [13]): protected the lung against diffuse alveolar damage (DAD) and ARDS-like lung damage | lung to body weight ratios (SARS-CoV-2 [8]; both pilot studies): able to maintain normal lung to body weight ratios | Viral Load -- Subgenomic E (SARS-CoV-2 [9]; 30 mg/kg/day, BAL, d5): 3.69E+04 Eq. VC/mL | Viral Load -- Subgenomic E (SARS-CoV-2 [9]; 30 mg/kg/day, Nasal, d3): 1.62E+06 Eq. VC/mL | Viral Load -- Subgenomic E (SARS-CoV-2 [9]; 30 mg/kg/day, Nasal, d5): 2.07E+04 Eq. VC/mL and 1.91E+04 Eq. VC/mL | Viral Load -- Genomic N1 (SARS-CoV-2 [9]; 30 mg/kg/day, Phary, d3): 1.11E+09 Eq. VC/mL and 1.87E+09 Eq. VC/mL | Viral Load -- Genomic N1 (SARS-CoV-2 [9]; 100 mg/kg/day, BAL, d1): 3.38E+08 Eq. VC/mL and 2.69E+08 Eq. VC/mL | Viral Load -- Subgenomic E (SARS-CoV-2 [9]; 100 mg/kg/day, BAL, d3): 2.45E+06 Eq. VC/mL and 1.58E+06 Eq. VC/mL | Viral Load -- Subgenomic N (SARS-CoV-2 [9]; 100 mg/kg/day, BAL, d3): 1.31E+07 Eq. VC/mL and 7.93E+06 Eq. VC/mL | Viral Load -- Subgenomic N (SARS-CoV-2 [9]; 100 mg/kg/day, BAL, d7): 1.40E+05 Eq. VC/mL | Viral Load -- Subgenomic E (SARS-CoV-2 [9]; 100 mg/kg/day, Nasal, d3): 7.94E+07 Eq. VC/mL | Viral Load -- Subgenomic N (SARS-CoV-2 [9]; 100 mg/kg/day, Nasal, d7): 4.19E+06 Eq. VC/mL | Viral Load -- Subgenomic E (SARS-CoV-2 [9]; 100 mg/kg/day, Phary, d3): 3.34E+07 Eq. VC/mL and 2.04E+07 Eq. VC/mL and 3.29E+07 Eq. VC/mL | Viral Load -- Subgenomic N (SARS-CoV-2 [9]; 100 mg/kg/day, Phary, d7): 3.64E+07 Eq. VC/mL and 5.51E+07 Eq. VC/mL | viral load as compared to the vehicle (SARS-CoV-2 [9]; [13]): significantly reduced viral load as compared to the vehicle | EC100 (SARS-CoV-2 [10]): 1 µM | cytopathogenic effect (SARS-CoV-2 [10]; [14]): CPE | cytopathogenic effect (SARS-CoV-2 [10]; [15]): CPE | cytopathogenic effect (SARS-CoV-2 [10]; [16]): CPE | EC100 (SARS-CoV-2 [1]; Vero E6): 2.5 µM | cytopathogenic effect (SARS-CoV-2 [1]; [11]): CPE | cytopathogenic effect (SARS-CoV-2 [1]; conc 0.156 uM (of K777 in combinations), Vero E6): CPE | cytopathogenic effect (SARS-CoV-2 [1]; [12]): CPE | cytopathogenic effect (SARS-CoV-2 [1]; conc 0.625 uM (of K777 in combinations), Vero E6): CPE | cytopathogenic effect (SARS-CoV-2 [1]; conc 1.25 uM (of K777 in combinations), Vero E6): CPE

CCC(CC)COC(=O)[C@H](C)N[P@](=O)(OC[C@H]1O[C@@](C#N)(c2ccc3c(N)ncnn23)[C@H](O)[C@@H]1O)Oc1ccccc1 [Remdesivir]
EC100 (SARS-CoV-2 [10]): 3 µM | cytopathogenic effect (SARS-CoV-2 [10]; conc 0.01 μM (of K11777 in combinations)): CPE | cytopathogenic effect (SARS-CoV-2 [10]; conc 0.03 μM (of K11777 in combinations)): CPE | cytopathogenic effect (SARS-CoV-2 [10]; [14]): CPE | cytopathogenic effect (SARS-CoV-2 [10]; [15]): CPE | cytopathogenic effect (SARS-CoV-2 [10]; [16]): CPE | cytopathogenic effect (SARS-CoV-2 [10]; conc 3 μM (of K11777 in combinations)): CPE
